“Also recorded” adds a separate entry of the source.

Format in all cases: cell-based, human
In series [1] the test system is APOBEC3B. In words: endogenous APOBEC3B mRNA in cancer cell lines treated with AEB071 (RT-qPCR). Particulars: 10 μM, 48 hours. How it is done: FIG. 4. The PKC-NFκB pathway drives endogenous APOBEC3B expression in cancer cells. (A) APOBEC3B mRNA levels in representative breast, ovarian, and head/neck cancer cell lines. mRNA expression is reported as the mean of three independent RT-qPCR reactions normalized to TBP (error bars report SD from triplicate assays). (B) Representative PKC inhibitor treated cancer cell line experiment. Each line was treated with AEB071 (10 μM) or vehicle control for 48 hours prior to analysis. The histogram reports APOBEC3B mRNA levels normalized to the vehicle treated control for each line.
Four breast cancer cell lines, four ovarian cancer cell lines, four bladder cancer cell lines, and four head/neck cancer cell lines were analyzed to determine whether the constitutively high levels of endogenous APOBEC3B observed in many human cancer cell lines occurs through the PKC pathway. The selected cell lines expressed a 10-fold range of endogenous APOBEC3B mRNA levels (FIG. 4A).
(§1) Each line was treated for 48 hours with 10 μM AEB071, and then APOBEC3B mRNA and protein levels were quantified by RT-qPCR and immunoblotting. […] This is important since higher concentrations of AEB071 are known to cause cell cycle perturbations and apoptosis in certain cell types.
(Quantitative PCR measures a nucleic acid by following its amplification.)

Series [2] has as its system APOBEC3B. In words: inhibitor pretreatment before PMA-induced APOBEC3B upregulation in MCF10A cells (RT-qPCR). The procedure: PMA is a well-known agonist of PKC, but it also affects other cellular processes. To determine whether APOBEC3B induction by PMA occurs through PKC signal transduction or an alternative mechanism, we leveraged a panel of existing PKC inhibitors that each vary with respect to class selectivity. MCF10A cells were pre-treated for 30 minutes with varying concentrations of the pan-PKC inhibitor Gö6983 (Gschwendt et al., FEBS Lett. 392:77-80, 1996) and then treated for six hours with PMA (25 ng/mL). […] As additional controls, MCF10A cells were pretreated in parallel with the phosphoinositol 3 kinase (PI3K) inhibitor, LY294002, and the mitogen-activated protein kinase kinase (MEK) inhibitor, U0126, prior to PMA induction (FIGS. 2B and 2C).
(§2) For induction experiments, 2.5×10^5 cells were plated in a 6-well plate 1 day prior to drug treatment. PMA was then added to the media and incubated at 37° C. with 5% CO2 for six hours unless otherwise indicated. Cells were harvested, RNA was extracted, and RT-qPCR was performed as previously reported (Refsland et al. 2010, Nucleic Acids Res 38:4274-4284). For experiments utilizing inhibitors, cells were pretreated with inhibitors 30 minutes prior to PMA induction (25 ng/mL). PMA (Thermo Fisher Scientific, Inc., Waltham, Mass.), cyclohexamide (Acros Organics, Thermo Fisher Scientific, Inc., Waltham, Mass.), Gö6983 (Cayman Chemical co., Ann Arbor, Mich.), LY294002 (EMD Chemicals, Merck KGaA, Darmstadt, Germany), U0126 (EMD Chemicals, Merck KGaA, Darmstadt, Germany), AEB071 (Medchemexpress, Monmouth Junction, N.J.), Gö6976 (Enzo Life Sciences, Inc., Farmingdale, N.Y.), BAY 11-7082 (R&D Systems, INc., Minneapolis, Minn.), and MG132 (Thermo Fisher Scientific, Inc., Waltham, Mass.) were stored as recommended. NIKi/Compound 31 was synthesized as described (Li et al., 2013, Bioorganic & Medicinal Chemistry Letters 23:1238-1244).

Another series relates to cancer cell lines. Kind of series: cell cycle and cell viability of cancer cell lines treated with AEB071. The note with it: 10 μM, 48 hours, data not shown.
Series [3] relates to APOBEC3B. In words: endogenous APOBEC3B protein in cancer cell lines treated with AEB071 (immunoblot). The note with it: 10 μM, 48 hours. The procedure: as §1
(§3) The development and validation of the rabbit monoclonal antibody (mAb) against APOBEC3B is as described elsewhere (U.S. Provisional Patent Application No. 62/186,109, filed Jun. 29, 2015). The mAb used (referred to as 5210-87-13) effectively binds endogenous APOBEC3B in a variety of assays. The anti-tubulin antibody was obtained from Covance Inc., Princeton, N.J.
For orientation: In western blotting, separated proteins are transferred to a membrane and probed.

The next series deals with APOBEC family members. Kind of series: mRNA levels of other APOBEC family members after PMA (RT-qPCR). The note with it: MCF10A cells, six hours. The procedure: (§4) A panel of immortalized normal human epithelial cells lines and breast cancer cell lines was treated with PMA or equal amounts of DMSO as a negative control, and previously validated reverse transcription quantitative PCR (RT-qPCR) assays were used to measure mRNA levels of all eleven human APOBEC family members. APOBEC3B mRNA was induced specifically by PMA treatment of several lines including the immortalized normal breast epithelial cell line MCF10A (FIG. 1A and FIG. 6). Under standard cell culture conditions, MCF10A expresses low levels of APOBEC3B and APOBEC3F, even lower levels of APOBEC3G and APOBEC3H, high levels of APOBEC3C, and undetectable levels of all other APOBEC family members.
For induction experiments, 2.5×10^5 cells were plated in a 6-well plate 1 day prior to drug treatment. PMA was then added to the media and incubated at 37° C. with 5% CO2 for six hours unless otherwise indicated. Cells were harvested, RNA was extracted, and RT-qPCR was performed as previously reported (Refsland et al. 2010, Nucleic Acids Res 38:4274-4284). For experiments utilizing inhibitors, cells were pretreated with inhibitors 30 minutes prior to PMA induction (25 ng/mL). […]

In series [4] the test system is RELA, NKB1, RELB and NFKB2. In words: RNA-seq of NFκB subunit mRNA in MCF10A cells treated with PMA. The note with it: PMA vs vehicle. The procedure: Canonical signaling is known to require IKKβ, whereas non-canonical NFκB signaling is strictly dependent on IKKα-catalyzed phosphorylation of p100. To distinguish between these pathways, MCF10A cells were pretreated with a titration of TPCA-1 concentrations spanning the IC50 values of both proteins, and then PMA was used to induce APOBEC3B upregulation. […] As an additional control, TNFα, which is regulated by the canonical pathway, was analyzed.
(§5) Two sets of MCF10A cells in duplicate were treated every eight hours with media supplemented with PMA or DMSO for 48 hours. At 48 hours, RNA was extracted using an RNeasy Mini Kit (Qiagen, Hilden, Germany). Total RNA was submitted to the University of Minnesota Genomics Center for sequencing on the Illumina HiSeq 2000 platform. Raw reads were analyzed using both DESeq2 (Love et al., 2014, Genome Biol. 15:550) and the Tuxedo suite (Trapnell et al., 2012, Nat Protoc.7:562-578) to identify changes in mRNA expression in PMA treated versus untreated cells.

Series [5] has as its system APOBEC3B. Kind of series: APOBEC3B protein levels by immunoblotting after PMA. The note with it: MCF10A cells. The procedure:
(§6) APOBEC3B was induced with as little as 1 ng/mL PMA, and its induction was dose responsive and near maximal at 25 ng/mL PMA (FIG. 1B, histogram). APOBEC3B mRNA levels correlated with a rise in steady-state protein levels as measured by immunoblotting with a rabbit anti-APOBEC3B monoclonal antibody (described in U.S. Provisional Patent Application No. 62/186,109. filed Jun. 29, 2015) and with enzymatic activity as measured by a gel-based single-stranded DNA cytosine deamination assay (FIG. 1B). […] APOBEC3B protein and activity levels lagged shortly behind mRNA levels and persisted through the duration of the time course (FIG. 1C, immunoblot and polyacrylamide gel). APOBEC3B upregulation may be a direct result of signal transduction as the kinetics of upregulation were not affected by simultaneously treating cells with the protein translation inhibitor cyclohexamide (FIG. 1D).
as §3

The subject of series [6] is APOBEC3B. In words: PMA induction of APOBEC3B mRNA in MCF10A cells (RT-qPCR). How it is done: as §4, §6, §2
The subject of the next series is PKCα (PRKCA). In words: RNA-seq of PKC isoform mRNA in MCF10A cells treated with PMA. The note with it: PMA vs vehicle.
Excerpt: PKCα mRNA levels were unchanged by PMA treatment, consistent with a mechanism by which PMA signals through pre-existing PKCα to ultimately stimulate APOBEC3B transcription (FIG. 2G). PKCα expression was depleted using three independent shRNA-encoding lentiviral constructs. […] Immunoblots confirmed PKCα knockdown and proportional reductions in APOBEC3B (FIG. 21). Altogether, the pharmacologic and genetic approaches provide a strong case for PKCα as the predominant PKC isoform driving PMA-mediated upregulation of APOBEC3B.
as §5

For series [7], the system named is APOBEC3B. Kind of series: single-stranded DNA cytosine deaminase activity of whole cell extracts after PMA. The note with it: MCF10A cell extracts. The procedure:
as §6
Deaminase activity assays were performed as previously reported (Vieira et al., 2014, mBio 5(6):e02234-14). In short, 4 pmol of a fluorescently labeled oligo with a single target cytosine (5 -[…]-fluorescein, SEQ ID NO:2) was treated with cell extract containing 0.025 U/rxn UDG (New England BioLabs, Inc., Ipswich, Mass.), UDG buffer, and 1.75 U/rxn RNase A (Qiagen, Hilden, Germany) for two hours. […] Gels were scanned using a FujiFilm Image Reader FLA-7000.

The subject of another series is APOBEC3B promoter region. In words: chromatin immunoprecipitation (ChIP) at the APOBEC3B promoter after PMA. Particulars: MCF10A cells, PMA 25 ng/mL two hours, ChIP-qPCR. The procedure:
We next performed a series of chromatin immunoprecipitation (ChIP) experiments to determine whether the canonical or noncanonical NFκB pathway is responsible for upregulating APOBEC3B. Primer sets were designed for each of the predicted NFκB binding sites near the APOBEC3B transcriptional start site, as well as a control set in the promoter region of NFKIB (FIG. 3E). ChIP was performed for RELA, RELB, RNA POL II (positive control), and isotype matched IgG (negative control) RELA, RELB, and RNA POL II were all bound to the NFKIB promoter following PMA treatment (FIG. 3F and FIG. 3G). In addition, we found RNA POL II strongly bound to the APOBEC3B gene near the transcriptional start site (FIG. 3F and FIG. 3G). We also found RELB bound both near the transcriptional start site and at sites 4 and 5, which are located in intron 2 and too close together to be distinguished by this procedure. Binding also may occur at lower levels at site 3 in intron 1, but the IgG signal was too high to distinguish background from actual binding. These ChIP data strongly implicate the noncanonical NFκB pathway, specifically RELB (and not RELA), in directly inducing APOBEC3B transcription in response to PMA activation of PKC.
MCF10A cells were treated with either DMSO or 25 ng/mL PMA for two hours. […]

Regarding `CN1CCN(c2nc(C3=C(c4c[nH]c5ccccc45)C(=O)NC3=O)c3ccccc3n2)CC1` [AEB071, sotrastaurin], in the series with APOBEC3B [1] (16 breast, ovarian, bladder, head/neck cancer cell lines), the “cell lines in which APOBEC3B mRNA levels were reduced by more than half” value is recorded as 7/16. Also, the “APOBEC3B mRNA levels” value with APOBEC3B [1] (HCC1806 breast cancer cell line), with APOBEC3B [1] (JSQ3 head/neck line), with APOBEC3B [1] (MDA-MB-453 breast cancer cell line), with APOBEC3B [1] (MDA-MB-468 breast cancer cell line), in the series with APOBEC3B [1] (OVCAR5 ovarian cancer cell line) and in the series on APOBEC3B [1] (SQ-20B head/neck line) was “reduced by more than half” in each case. Moreover, the “APOBEC3B mRNA levels” value with APOBEC3B [1] (TR146 head/neck line) is listed as “reduced by more than half”. In addition, in the series with APOBEC3B [2], the “potency relative to Gö6983, BIM-1, or Gö6983 in suppressing PMA-induced APOBEC3B” value is given as “approximately 10 fold”. Further, the “suppression of PMA-induced APOBEC3B mRNA induction” value in the series on APOBEC3B [2] (30-minute pretreatment with inhibitor, then PMA 25 ng/mL six hours) is on record as “inhibited; also recorded: clear dose dependent response”. In the series with APOBEC3B [2] (pretreatment, PMA induced), the “concentration that caused complete suppression of APOBEC3B expression” value came to 500 nM. For the same molecule, the “effects on the cell cycle or cell viability” value in the series with cancer cell lines is “No effects on the cell cycle or cell viability”. Moreover, the “changes of APOBEC3B protein levels” value with APOBEC3B [3] is recorded as “largely mirrored the mRNA results”.
For `CCCCCCCCCCCCCC(=O)O[C@@H]1[C@@H](C)[C@@]2(O)[C@@H](C=C(CO)C[C@]3(O)C(=O)C(C)=C[C@@H]23)[C@@H]2C(C)(C)[C@]12OC(C)=O` [PMA], the “changes in the expression levels of other APOBEC family members” value in the series with APOBEC family members was “no detectable changes”. Further, in [4], the “mRNA levels of NFκB components RELA, NKB1, RELB, NFKB2” value was “unaffected”. The APOBEC3B protein levels entry in the series on APOBEC3B [5] is listed as “dose-responsive increases”. For the same molecule, in the series on APOBEC3B [6] (PMA 25 ng/ml), the “time after PMA treatment at which maximal APOBEC3B mRNA levels were observed” value is given as “by three hours post-treatment” and the “time after PMA treatment at which significant APOBEC3B mRNA induction was detected” value came to 30 min. In the series on APOBEC3B [6] (six hours), the “PMA concentration at which APOBEC3B induction was near maximal” value is given as 25 ng/mL and the “lowest PMA concentration that induced APOBEC3B” value is recorded as 1 ng/mL. Further, the “PKCα mRNA levels” value in the series on PKCα (PRKCA) is “unchanged”. In addition, the “APOBEC3B activity levels (DNA cytosine deaminase)” value in the series on APOBEC3B [7] is “dose-responsive increases”. The “recruitment of RELB and p105/p52 to the APOBEC3B promoter region” value with APOBEC3B promoter region was “specifically and robustly recruited”.

The record behind these values is patent publication US20180185302A1, “METHODS FOR DOWNREGULATING APOBEC3B” (Regents of the University of Minnesota, priority 2015, published 2018).
